Assay results reported in paper PMC3776780, “Dual p38/JNK Mitogen Activated Protein Kinase Inhibitors Prevent Ozone-Induced Airway Hyperreactivity in Guinea Pigs” (PLoS ONE, 2013).

Experiments:
Test in all cases: spectrophotometric coupled-enzyme kinase inhibition assay
Format in all cases: biochemical
[1] = target: IGF1R (Homo sapiens, UniProt P08069); settings: read-out: Ki or IC50 IGF1R
Procedure: (§1) Affinity was measured using a kinase inhibition assay. Compounds were assayed for the inhibition of various kinases using a modification of a spectrophotometric coupled-enzyme assay. In this assay, a fixed concentration of activated kinase (10–40 nM) was incubated with various concentrations of a potential inhibitor dissolved in DMSO for 10 minutes at 30°C in a buffer containing 0.1 M HEPES, pH 7.5, containing 10 mM MgCl2, 2.5 mM phosphoenolpyruvate, 200 µM NADH, 2 mM DTT, 30 µg/mL pyruvate kinase, 10 µg/mL lactate dehydrogenase, and 200 µM–500 µM EGF receptor peptide. The EGF receptor peptide has the sequence […]. The reaction was initiated by the addition of ATP equal to the ATP Km of the kinase, and the assay plate is inserted into the spectrophotometer’s assay plate compartment that was maintained at 30°C. The decrease of absorbance at 340 nm was monitored as a function of time for 10 minutes. The rate data as a function of inhibitor concentration was either fit as an IC50 or to a competitive inhibition kinetic model to determine the compound Ki (see table 1).

[2] = target: T1, JAK3 (Homo sapiens, UniProt P52333); settings: read-out: Ki or IC50 JAK3
T1 sequence (P52333 1-1124): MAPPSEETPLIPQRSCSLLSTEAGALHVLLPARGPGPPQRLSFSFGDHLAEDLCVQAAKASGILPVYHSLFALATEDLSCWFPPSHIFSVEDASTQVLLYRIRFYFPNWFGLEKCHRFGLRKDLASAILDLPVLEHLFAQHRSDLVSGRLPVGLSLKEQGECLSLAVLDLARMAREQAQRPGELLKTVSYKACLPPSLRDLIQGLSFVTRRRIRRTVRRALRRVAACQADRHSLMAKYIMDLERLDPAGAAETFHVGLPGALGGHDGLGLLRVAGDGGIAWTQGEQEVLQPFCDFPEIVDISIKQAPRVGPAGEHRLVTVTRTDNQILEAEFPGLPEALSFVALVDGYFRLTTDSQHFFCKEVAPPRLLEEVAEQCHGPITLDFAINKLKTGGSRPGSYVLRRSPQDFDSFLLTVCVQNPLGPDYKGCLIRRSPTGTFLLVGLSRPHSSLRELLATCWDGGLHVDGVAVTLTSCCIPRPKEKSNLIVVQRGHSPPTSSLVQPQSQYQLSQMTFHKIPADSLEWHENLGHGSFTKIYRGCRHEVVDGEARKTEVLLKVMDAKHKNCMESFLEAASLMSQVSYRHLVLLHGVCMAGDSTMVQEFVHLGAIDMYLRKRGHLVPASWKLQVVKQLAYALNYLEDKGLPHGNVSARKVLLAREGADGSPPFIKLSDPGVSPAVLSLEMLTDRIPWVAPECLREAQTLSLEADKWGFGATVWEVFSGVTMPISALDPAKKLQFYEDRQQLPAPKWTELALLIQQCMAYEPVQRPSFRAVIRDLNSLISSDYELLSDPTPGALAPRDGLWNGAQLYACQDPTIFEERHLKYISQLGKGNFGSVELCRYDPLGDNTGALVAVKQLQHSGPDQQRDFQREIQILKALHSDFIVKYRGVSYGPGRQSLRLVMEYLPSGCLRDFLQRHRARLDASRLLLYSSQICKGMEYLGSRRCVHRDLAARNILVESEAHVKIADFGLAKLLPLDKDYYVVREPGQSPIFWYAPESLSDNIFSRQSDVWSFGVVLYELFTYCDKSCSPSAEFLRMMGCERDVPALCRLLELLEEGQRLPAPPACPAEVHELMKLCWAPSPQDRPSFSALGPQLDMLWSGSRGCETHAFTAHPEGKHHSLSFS
Procedure: as §1

[3] = target: JNK3 (Homo sapiens, UniProt P53779); settings: ATP equal to Km, 30°C
Procedure: as §1

[4] = target: KDR (Homo sapiens, UniProt P35968); settings: read-out: Ki or IC50 KDR
Procedure: as §1

[5] = target: T2, MKK7 (Homo sapiens, UniProt O14733); settings: read-out: Ki or IC50 MKK7
T2 sequence (O14733 1-419): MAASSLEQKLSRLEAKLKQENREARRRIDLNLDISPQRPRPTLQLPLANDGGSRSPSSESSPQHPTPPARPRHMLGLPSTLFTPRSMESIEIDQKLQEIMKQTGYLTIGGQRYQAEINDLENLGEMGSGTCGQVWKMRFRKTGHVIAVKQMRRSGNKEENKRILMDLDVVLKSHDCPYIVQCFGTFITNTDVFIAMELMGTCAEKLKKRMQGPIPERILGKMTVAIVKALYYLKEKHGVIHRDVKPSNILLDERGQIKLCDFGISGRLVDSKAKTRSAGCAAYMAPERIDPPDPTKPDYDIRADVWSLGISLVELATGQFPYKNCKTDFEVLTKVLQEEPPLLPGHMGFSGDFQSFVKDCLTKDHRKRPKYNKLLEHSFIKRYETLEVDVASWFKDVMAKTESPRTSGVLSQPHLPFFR
Procedure: as §1

[6] = target: ROCK1 (Homo sapiens, UniProt Q13464); settings: read-out: Ki or IC50 ROCK1
Procedure: as §1

[7] = target: SYK (Homo sapiens, UniProt P43405); settings: read-out: Ki or IC50 SYK
Procedure: as §1

[8] = target: T3, ZAP70 (Homo sapiens, UniProt P43403); settings: read-out: Ki or IC50 ZAP70
T3 sequence (P43403 1-619): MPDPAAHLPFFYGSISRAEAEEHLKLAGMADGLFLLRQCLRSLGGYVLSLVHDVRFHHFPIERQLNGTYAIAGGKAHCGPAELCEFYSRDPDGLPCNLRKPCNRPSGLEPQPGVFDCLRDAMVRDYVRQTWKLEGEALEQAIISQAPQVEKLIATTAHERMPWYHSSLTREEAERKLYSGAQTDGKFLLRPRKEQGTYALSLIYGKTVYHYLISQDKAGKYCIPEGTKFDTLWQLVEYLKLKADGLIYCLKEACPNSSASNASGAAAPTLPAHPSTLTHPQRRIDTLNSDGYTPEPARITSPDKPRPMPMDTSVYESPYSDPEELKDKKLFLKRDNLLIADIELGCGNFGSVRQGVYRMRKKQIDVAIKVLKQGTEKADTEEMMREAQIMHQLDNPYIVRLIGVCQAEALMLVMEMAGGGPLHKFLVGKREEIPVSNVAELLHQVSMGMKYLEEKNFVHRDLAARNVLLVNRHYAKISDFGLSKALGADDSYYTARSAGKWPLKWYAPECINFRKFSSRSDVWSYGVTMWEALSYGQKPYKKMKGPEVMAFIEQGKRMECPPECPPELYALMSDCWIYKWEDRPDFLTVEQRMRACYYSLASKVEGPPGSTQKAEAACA
Procedure: as §1

KDR, sequence (P35968 20-1356, species assumed): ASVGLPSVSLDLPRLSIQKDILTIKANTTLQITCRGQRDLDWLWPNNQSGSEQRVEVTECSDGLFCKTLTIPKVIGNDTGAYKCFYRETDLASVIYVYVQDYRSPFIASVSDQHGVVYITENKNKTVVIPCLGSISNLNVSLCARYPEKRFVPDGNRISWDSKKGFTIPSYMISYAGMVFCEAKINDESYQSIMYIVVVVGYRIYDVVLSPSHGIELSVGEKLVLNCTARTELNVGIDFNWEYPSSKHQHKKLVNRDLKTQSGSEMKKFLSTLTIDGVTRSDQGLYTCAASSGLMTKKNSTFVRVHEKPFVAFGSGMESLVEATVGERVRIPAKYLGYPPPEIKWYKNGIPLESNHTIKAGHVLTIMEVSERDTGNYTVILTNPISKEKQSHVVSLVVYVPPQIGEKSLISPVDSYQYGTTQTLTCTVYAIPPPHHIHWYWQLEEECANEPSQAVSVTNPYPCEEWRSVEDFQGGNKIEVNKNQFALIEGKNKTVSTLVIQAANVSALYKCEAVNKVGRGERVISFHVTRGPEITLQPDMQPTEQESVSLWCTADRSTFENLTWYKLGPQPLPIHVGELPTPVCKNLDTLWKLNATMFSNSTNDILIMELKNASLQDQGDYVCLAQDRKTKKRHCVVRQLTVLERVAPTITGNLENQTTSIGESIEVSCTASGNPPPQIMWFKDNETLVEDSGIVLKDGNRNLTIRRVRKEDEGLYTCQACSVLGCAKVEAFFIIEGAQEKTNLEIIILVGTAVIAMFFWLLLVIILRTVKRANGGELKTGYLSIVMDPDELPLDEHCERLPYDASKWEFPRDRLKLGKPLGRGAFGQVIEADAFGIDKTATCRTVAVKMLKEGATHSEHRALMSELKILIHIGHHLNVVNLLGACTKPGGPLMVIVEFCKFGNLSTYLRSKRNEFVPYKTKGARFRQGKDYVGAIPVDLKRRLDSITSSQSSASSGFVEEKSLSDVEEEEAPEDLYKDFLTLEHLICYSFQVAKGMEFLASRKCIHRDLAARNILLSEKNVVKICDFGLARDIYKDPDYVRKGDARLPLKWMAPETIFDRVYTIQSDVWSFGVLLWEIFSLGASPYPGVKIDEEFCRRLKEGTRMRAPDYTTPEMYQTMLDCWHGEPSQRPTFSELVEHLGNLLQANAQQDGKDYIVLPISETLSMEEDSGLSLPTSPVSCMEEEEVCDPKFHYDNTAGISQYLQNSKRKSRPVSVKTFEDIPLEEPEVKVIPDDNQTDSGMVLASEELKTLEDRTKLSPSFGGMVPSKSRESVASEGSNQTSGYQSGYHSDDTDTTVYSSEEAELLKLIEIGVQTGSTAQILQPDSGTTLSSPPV
IGF1R, sequence (P08069 31-1367, species assumed): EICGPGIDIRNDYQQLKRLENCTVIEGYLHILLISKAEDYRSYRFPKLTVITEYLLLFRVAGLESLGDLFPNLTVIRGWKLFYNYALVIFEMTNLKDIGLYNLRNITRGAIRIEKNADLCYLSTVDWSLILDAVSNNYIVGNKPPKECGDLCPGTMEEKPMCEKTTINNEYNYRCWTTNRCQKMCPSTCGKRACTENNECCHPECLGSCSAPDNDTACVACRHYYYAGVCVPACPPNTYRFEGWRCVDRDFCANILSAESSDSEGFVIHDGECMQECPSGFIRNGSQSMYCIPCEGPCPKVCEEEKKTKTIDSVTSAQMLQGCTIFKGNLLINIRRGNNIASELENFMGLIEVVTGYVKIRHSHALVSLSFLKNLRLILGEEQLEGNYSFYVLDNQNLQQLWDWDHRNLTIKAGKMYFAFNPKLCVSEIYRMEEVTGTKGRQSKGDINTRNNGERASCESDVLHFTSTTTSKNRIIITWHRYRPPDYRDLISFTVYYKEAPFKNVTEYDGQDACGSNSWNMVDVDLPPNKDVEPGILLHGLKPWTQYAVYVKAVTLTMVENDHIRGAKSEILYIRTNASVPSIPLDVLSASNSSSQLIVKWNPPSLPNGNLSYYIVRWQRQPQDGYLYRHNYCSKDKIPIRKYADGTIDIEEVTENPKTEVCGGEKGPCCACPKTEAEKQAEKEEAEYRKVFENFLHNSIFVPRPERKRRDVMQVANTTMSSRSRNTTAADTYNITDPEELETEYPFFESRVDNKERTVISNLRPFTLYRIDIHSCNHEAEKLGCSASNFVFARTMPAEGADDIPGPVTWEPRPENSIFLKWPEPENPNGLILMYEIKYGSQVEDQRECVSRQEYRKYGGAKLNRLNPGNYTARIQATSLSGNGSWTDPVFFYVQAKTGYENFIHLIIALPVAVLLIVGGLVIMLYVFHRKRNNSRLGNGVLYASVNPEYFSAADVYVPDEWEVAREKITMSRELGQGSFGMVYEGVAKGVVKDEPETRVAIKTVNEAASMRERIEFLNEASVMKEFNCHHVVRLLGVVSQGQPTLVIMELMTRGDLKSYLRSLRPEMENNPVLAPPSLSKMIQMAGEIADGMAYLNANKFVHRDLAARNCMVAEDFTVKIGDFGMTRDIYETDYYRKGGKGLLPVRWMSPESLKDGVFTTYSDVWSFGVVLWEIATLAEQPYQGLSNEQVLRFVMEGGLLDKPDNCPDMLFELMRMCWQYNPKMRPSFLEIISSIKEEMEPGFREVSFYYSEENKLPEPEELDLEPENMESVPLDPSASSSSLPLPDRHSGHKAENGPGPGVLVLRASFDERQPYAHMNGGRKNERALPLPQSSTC
ROCK1, sequence (Q13464 whole entry, species assumed): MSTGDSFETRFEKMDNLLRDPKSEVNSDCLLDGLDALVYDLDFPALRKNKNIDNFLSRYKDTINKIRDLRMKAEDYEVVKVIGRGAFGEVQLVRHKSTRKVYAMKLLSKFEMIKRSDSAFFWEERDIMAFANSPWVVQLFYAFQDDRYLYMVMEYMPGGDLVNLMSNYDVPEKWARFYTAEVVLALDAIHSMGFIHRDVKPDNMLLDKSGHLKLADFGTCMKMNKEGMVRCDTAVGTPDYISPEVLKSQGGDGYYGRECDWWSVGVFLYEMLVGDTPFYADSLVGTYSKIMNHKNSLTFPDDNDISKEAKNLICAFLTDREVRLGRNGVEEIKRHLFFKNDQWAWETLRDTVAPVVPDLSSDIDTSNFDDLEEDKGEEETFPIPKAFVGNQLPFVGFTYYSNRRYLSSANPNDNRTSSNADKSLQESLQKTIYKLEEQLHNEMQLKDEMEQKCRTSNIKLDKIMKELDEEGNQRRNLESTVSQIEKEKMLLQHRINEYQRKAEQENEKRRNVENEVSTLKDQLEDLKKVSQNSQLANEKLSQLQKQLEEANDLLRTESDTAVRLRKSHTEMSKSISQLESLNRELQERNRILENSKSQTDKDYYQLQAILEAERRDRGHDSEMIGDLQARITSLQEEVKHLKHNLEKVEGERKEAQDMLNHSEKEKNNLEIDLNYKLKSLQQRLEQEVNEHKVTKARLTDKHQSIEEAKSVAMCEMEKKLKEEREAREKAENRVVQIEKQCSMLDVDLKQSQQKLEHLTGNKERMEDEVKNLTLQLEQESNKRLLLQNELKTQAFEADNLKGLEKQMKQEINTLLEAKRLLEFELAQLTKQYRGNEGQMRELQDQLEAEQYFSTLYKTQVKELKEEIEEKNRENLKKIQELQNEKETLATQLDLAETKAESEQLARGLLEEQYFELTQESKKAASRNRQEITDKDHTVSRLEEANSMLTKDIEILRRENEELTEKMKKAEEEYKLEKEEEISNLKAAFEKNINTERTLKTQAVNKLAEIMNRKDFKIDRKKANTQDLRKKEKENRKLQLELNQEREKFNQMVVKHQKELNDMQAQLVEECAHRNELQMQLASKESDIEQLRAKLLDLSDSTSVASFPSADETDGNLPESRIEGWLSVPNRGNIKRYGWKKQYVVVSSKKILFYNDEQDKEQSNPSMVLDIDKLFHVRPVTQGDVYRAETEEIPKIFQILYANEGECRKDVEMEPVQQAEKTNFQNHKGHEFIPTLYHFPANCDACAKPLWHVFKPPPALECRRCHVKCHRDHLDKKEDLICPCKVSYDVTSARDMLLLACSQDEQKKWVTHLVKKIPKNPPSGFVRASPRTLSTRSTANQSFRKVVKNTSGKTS
JNK3, sequence (P53779 whole entry, species assumed): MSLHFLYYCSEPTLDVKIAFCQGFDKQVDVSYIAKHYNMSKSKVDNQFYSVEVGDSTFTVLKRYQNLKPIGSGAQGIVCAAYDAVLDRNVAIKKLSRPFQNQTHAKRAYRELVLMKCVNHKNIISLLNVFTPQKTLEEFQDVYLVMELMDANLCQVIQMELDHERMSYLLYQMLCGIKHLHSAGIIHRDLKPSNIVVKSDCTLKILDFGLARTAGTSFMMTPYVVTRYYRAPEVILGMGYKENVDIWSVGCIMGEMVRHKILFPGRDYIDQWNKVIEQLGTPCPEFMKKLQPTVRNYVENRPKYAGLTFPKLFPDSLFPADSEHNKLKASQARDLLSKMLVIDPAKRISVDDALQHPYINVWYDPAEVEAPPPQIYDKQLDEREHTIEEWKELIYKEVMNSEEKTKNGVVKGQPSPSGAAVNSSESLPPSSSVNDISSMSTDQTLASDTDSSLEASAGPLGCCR

Structure (SMILES) | Ki [1] [nM] | Ki [2] [nM] | Ki [3] [nM] | Ki [4] [nM] | Ki [5] [nM] | Ki [6] [nM] | Ki [7] [nM] | Ki [8] [nM]
OC1CCN(Cc2onc(-c3ccc(F)cc3)c2-c2ccnc(NC3CCCCC3)n2)CC1 [V-05-013] | > 1000 | > 1000 | 5 | > 1000 | > 1000 | > 1000 | > 1000 | > 1000
OC[C@@H]1CCCN1Cc1onc(-c2ccc(F)cc2)c1-c1ccnc(NC2CCCCC2)n1 [V-05-014] | > 1000 | > 1000 | 10 | > 1000 | > 1000 | > 1000 | > 1000 | > 1000
Fc1ccc(-c2noc(CN3CCCCC3)c2-c2ccnc(NC3CCCCC3)n2)cc1 [V-05-015] | > 1000 | > 1000 | 8 | > 1000 | > 1000 | > 1000 | > 1000 | > 1000
